Data from US20230365589A1, “NOVEL AMINE DERIVATIVES” (Sumitomo Pharma Co., Ltd., priority 2020, published 2023).
Read-outs that look alike come from different tables or passages of the source.

What was measured:
Format in all cases: biochemical
DYRK3 = molecular target: T1, DYRK3 (Homo sapiens, UniProt O43781); assay: Inhibition test on activity of DYRK family, mobility shift assay (MSA): DYRK3
T1 construct: purchased Carna Biosciences, Inc. 04-133
T1 sequence (O43781 1-568 isoform O43781-2): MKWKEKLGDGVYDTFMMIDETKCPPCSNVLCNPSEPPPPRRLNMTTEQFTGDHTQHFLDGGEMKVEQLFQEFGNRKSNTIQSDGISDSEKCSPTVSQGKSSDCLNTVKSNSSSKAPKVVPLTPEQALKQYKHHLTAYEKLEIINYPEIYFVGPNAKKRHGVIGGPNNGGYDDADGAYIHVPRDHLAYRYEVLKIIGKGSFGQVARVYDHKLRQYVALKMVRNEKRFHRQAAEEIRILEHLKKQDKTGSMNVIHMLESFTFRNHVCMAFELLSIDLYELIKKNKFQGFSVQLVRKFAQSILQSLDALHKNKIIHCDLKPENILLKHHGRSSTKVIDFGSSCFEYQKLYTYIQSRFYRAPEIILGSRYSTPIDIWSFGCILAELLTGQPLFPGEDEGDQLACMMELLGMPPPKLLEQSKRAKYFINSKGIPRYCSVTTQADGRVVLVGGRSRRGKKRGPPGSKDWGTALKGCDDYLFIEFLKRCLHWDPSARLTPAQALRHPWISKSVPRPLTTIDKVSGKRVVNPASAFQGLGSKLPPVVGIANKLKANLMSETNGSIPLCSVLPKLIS
Method: (§1) [Inhibition Test on Activity of DYRK Family (DYRK1A, DYRK1B, DYRK2, and DYRK3)]
(§2) The kinase activity was measured by mobility shift assay (MSA) method using QuickScout Screening Assist™ MSA (commercially available kit manufactured by Carna Biosciences, Inc.). The substrate of the kinase reaction used was an FITC-labeled DYRKtide peptide included in the kit. An assay buffer [20 mM HEPES, 0.01% Triton X-100™, 2 mM dithiothreitol, pH 7.5]was used to create a substrate mixture solution with a substrate (4 μM), MgCl2(20 mM), and ATP (DYRK1A: 100 μM; DYRK1B: 200 μM; DYRK2: 40 μM; and DYRK3: 20 μM). In addition, kinases (DYRK1A: manufactured by Carna Biosciences, Inc., Cat. No. 04-130; DYRK1B: manufactured by Carna Biosciences, Inc., Cat. No. 04-131; DYRK2; manufactured by Carna Biosciences, Inc., Cat. No. 04-132; and DYRK3; manufactured by Carna Biosciences, Inc., Cat. No. 04-133) were diluted with the assay buffer to prepare enzyme solutions (DYRK1A: 0.2 ng/μL; DYRK1B: 0.08 ng/μL; DYRK2: 0.04 ng/μL; and DYRK3: 0.25 ng/μL). The 10 mM solution of the test compound in DMSO was further diluted with DMSO to 10 levels of the concentration (0.00003 mM, 0.0001 mM, 0.0003 mM, 0.001 mM, 0.003 mM, 0.01 mM, 0.03 mM, 0.1 mM, 0.3 mM, and 1 mM), each of which was subjected to 25-fold dilution with the assay buffer to obtain a drug solution (4% DMSO solution). 5 μL of the drug solution or a control solution (4% DMSO-assay buffer), 5 μL of the substrate mixture solution, and 10 μL of the enzyme solution were mixed in the wells of a polypropylene 384-well plate and allowed to react at room temperature for 1 hour, and then the reaction was quenched by adding 60 μL of the termination buffer included in the kit. Subsequently, the quantities of the substrates (S) and the phosphorylated substrate (P) in the reaction solution were measured using LabChip EZ Reader II system (manufactured by Caliper Life Sciences) according to the protocol of the assay kit.
(§3) The heights of the peaks of the “substrate” and the “phosphorylated substrate” were expressed as S and P, respectively, and a blank containing the assay buffer instead of the enzyme solution was also measured.
(§4) The inhibition rate (%) of the test compound was calculated according to the following equation:
(§5) Inhibition rate (%)=(1−(C−A)/(B−A))×100 • wherein, A, B, and C represent P/(P+S) of the blank well, P/(P+S) of the control solution well, and P/(P+S) of the compound-containing well, respectively.
(§6) The IC50 value was calculated via a regression analysis of the inhibition rate and the test compound concentration (logarithmic value).
(§7) The inhibiting activities of representative compounds of the present invention are shown against DYRK1A, DYRK1B, DYRK2, and DYRK3 in Tables.

DYRK1A = molecular target: T2, DYRK1A (Homo sapiens, UniProt Q13627); assay: Inhibition test on activity of DYRK family, mobility shift assay (MSA): DYRK1A
T2 construct: purchased Carna Biosciences, Inc. 04-130
Method: as §1, §2, §3, §4, §5, §6

DYRK2 = molecular target: T3, DYRK2 (Homo sapiens, UniProt Q92630); assay: Inhibition test on activity of DYRK family, mobility shift assay (MSA): DYRK2
T3 construct: purchased Carna Biosciences, Inc. 04-132
T3 sequence (Q92630 74-601 limits assumed): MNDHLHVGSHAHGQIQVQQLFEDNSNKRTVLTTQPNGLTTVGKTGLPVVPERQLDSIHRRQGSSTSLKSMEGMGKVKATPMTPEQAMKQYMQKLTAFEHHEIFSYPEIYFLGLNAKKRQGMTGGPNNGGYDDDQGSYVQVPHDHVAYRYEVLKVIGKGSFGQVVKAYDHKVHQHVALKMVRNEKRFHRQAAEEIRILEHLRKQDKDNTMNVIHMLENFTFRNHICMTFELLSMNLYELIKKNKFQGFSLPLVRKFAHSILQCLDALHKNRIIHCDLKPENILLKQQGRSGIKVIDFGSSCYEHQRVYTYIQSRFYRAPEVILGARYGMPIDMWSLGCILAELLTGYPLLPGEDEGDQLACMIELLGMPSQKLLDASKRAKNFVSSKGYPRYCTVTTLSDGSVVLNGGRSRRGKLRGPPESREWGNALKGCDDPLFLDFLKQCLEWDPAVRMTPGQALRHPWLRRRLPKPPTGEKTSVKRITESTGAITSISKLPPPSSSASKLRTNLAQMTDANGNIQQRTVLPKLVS
Method: as §1, §2, §3, §4, §5, §6, §7

[1] = read-out: Inhibitory activity DYRK 3
[2] = read-out: Inhibitory activity DYRK 1A
[3] = read-out: Inhibitory activity DYRK 2
[4] = MSA, FITC-labeled DYRKtide peptide, ATP 20 μM, read-out: Inhibitory activity DYRK 3 (IC50 class)
[5] = MSA, FITC-labeled DYRKtide peptide, ATP 100 μM, read-out: Inhibitory activity DYRK 1A (IC50 class)
[6] = MSA, FITC-labeled DYRKtide peptide, ATP 40 μM, read-out: Inhibitory activity DYRK 2 (IC50 class)

Row | IC50 (DYRK3; [1]) [nM] | IC50 (DYRK1A; [2]) [nM] | IC50 (DYRK2; [3]) [nM] | IC50 (DYRK3; [4]) [nM] | IC50 (DYRK1A; [5]) [nM] | IC50 (DYRK2; [6]) [nM] | SMILES
1 | ≥ 1000 | 10 to 100 | ≥ 1000 | – | – | – | O=C1N[C@H]2CCN(CC(F)(F)F)C[C@H]2N1c1nc2c3c(ccc2s1)OCC3 (racemic) [Example 107, rac-(3aR,7aS)-3-(7,8-dihydrofuro[3,2-e][1,3]benzothiazol-2-yl)-5-(2,2,2-trifluoroethyl)octahydro-2H-imidazo[4,5-c]pyridin-2-one]
2 | – | – | – | 100 to 1000 | 10 to 100 | ≥ 1000 | CN1CC[C@@H]2[C@H](C1)NC(=O)N2c1nc2c3c(ccc2s1)OCO3 (racemic) [Example 78, rac-(3aR,7aS)-1-(2H-[1,3]dioxolo[4,5-e][1,3]benzothiazol-7-yl)-5-methyloctahydro-2H-imidazo[4,5-c]pyridin-2-one]
3 | – | – | – | > 1000 | 100 to 1000 | > 1000 | CC(=O)N1CC[C@@H]2NC(=O)N(c3nc4c5c(ccc4s3)OCC5)[C@@H]2C1 (relative stereo) [Example 20, cis-5-Acetyl-3-(7,8-dihydrofuro[3,2-e][1,3]benzothiazol-2-yl) octahydro-2H-imidazo[4,5-c]pyridin-2-one]
4 | – | – | – | ≥ 1000 | 10 to 100 | ≥ 1000 | O=C1NC2CCNCC2N1c1nc2c3c(ccc2s1)OCCO3 (centres unmarked) [Example 29]
5 | ≥ 1000 | 10 to 100 | ≥ 1000 | – | – | – | O=C1N[C@H]2CCN(CC(F)F)C[C@H]2N1c1nc2c3c(ccc2s1)OCC3 (racemic) [Example 108, rac-(3aR,7aS)-5-(2,2-difluoroethyl)-3-(7,8-dihydrofuro[3,2-e][1,3]benzothiazol-2-yl)octahydro-2H-imidazo[4,5-c]pyridin-2-one]
6 | – | – | – | ≥ 1000 | 100 to 1000 | ≥ 1000 | CN1C[C@@H]2NC(=O)N(c3nc4c5c(ccc4s3)OCC5)[C@@H]2CC12CC2 [Example 89]
7 | – | – | – | ≥ 1000 | 100 to 1000 | ≥ 1000 | C[C@H]1NC(=O)N(c2nc3c4c(ccc3s2)OCC4)[C@@H]1CN(C)C [Example 22, (4R,5R)-1-(7,8-dihydrofuro[3,2-e][1,3]benzothiazol-2-yl)-5-[(dimethylamino)methyl]-4-methylimidazolidin-2-one]
8 | – | – | – | 100 to 1000 | – | 100 to 1000 | O=C1N[C@H]2CCN(C3COC3)C[C@@H]2N1c1nc2c3c(ccc2s1)OCC3 [Example 19, (3aS,7aS)-3-(7,8-dihydrofuro[3,2-e][1,3]benzothiazol-2-yl)-5-(oxetan-3-yl)octahydro-2H-imidazo[4,5-c]pyridin-2-one]
9 | – | – | – | 100 to 1000 | 10 to 100 | 100 to 1000 | O=C1N[C@H]2CNCC[C@H]2N1c1nc2c3c(ccc2s1)OCCO3 [Example 51]
10 | ≥ 1000 | 10 to 100 | 100 to 1000 | – | – | – | C[C@@H]1NC(=O)N(c2nc3c4c(ccc3s2)OCC4)[C@@H]1CN1CC[C@H](F)C1 [Example 115, (4S,5R)-1-(7,8-dihydrofuro[3,2-e][1,3]benzothiazol-2-yl)-5-{[(3S)-3-fluoropyrrolidin-1-yl]methyl}-4-methylimidazolidin-2-one]
11 | – | – | – | 10 to 100 | 10 to 100 | 100 to 1000 | O=C1N[C@@H]2CCNC3(CC3)[C@H]2N1c1nc2c3c(ccc2s1)OCC3 [Example 48]
12 | ≥ 1000 | 100 to 1000 | ≥ 1000 | – | – | – | N#CCN1CC[C@H]2NC(=O)N(c3nc4c5c(ccc4s3)OCC5)[C@H]2C1 (single isomer, unassigned) [Example 111]
13 | – | – | – | 100 to 1000 | 100 to 1000 | ≥ 1000 | CN1CC[C@@H]2[C@@H](NC(=O)N2c2nc3c4c(ccc3s2)OCC4)C12CC2 [Example 68]
14 | ≥ 1000 | < 10 | ≥ 1000 | – | – | – | O=C1N[C@H]2CCN(C3CC3)C[C@H]2N1c1nc2c3c(ccc2s1)OCC3 (racemic) [Example 98, rac-(3aR,7aS)-5-cyclopropyl-3-(7,8-dihydrofuro[3,2-e][1,3]benzothiazol-2-yl)octahydro-2H-imidazo[4,5-c]pyridin-2-one]
15 | – | – | – | 100 to 1000 | 100 to 1000 | ≥ 1000 | O=C1N[C@H]2CCN(C3CNC3)C[C@H]2N1c1nc2c3c(ccc2s1)OCC3 [Example 53]
16 | ≥ 1000 | 100 to 1000 | ≥ 1000 | – | – | – | C[C@@H]1C[C@@H]2NC(=O)N(c3nc4c5c(ccc4s3)OCC5)[C@@H]2CN1C [Example 96]
17 | – | – | – | 10 to 100 | 10 to 100 | 100 to 1000 | O=C1N[C@H]2CCNCC[C@H]2N1c1nc2c3c(ccc2s1)OCC3 [Example 45]
18 | – | – | – | ≥ 1000 | 10 to 100 | ≥ 1000 | CC(C)(C)OC(=O)N1CC(N2CC[C@@H]3NC(=O)N(c4nc5c6c(ccc5s4)OCC6)[C@@H]3C2)C1 [Example 82]
19 | – | 100 to 1000 | ≥ 1000 | – | – | – | C#CCN1CC[C@H]2NC(=O)N(c3nc4c5c(ccc4s3)OCC5)[C@H]2C1 (single isomer, unassigned) [Example 113]
20 | – | – | – | 100 to 1000 | – | ≥ 1000 | CN1CC[C@H]2NC(=O)N(c3nc4c5c(ccc4s3)OCC5)[C@@H]2C12CC2 [Example 70]
21 | – | – | – | ≥ 1000 | – | ≥ 1000 | O=C1N[C@H]2CCN(C3COC3)C[C@H]2N1c1nc2c3c(ccc2s1)OCC3 (racemic) [Example 71, rac-(3aR,7aS)-3-(7,8-dihydrofuro[3,2-e][1,3]benzothiazol-2-yl)-5-(oxetan-3-yl)octahydro-2H-imidazo[4,5-c]pyridin-2-one]
22 | – | – | – | 100 to 1000 | – | 100 to 1000 | O=C1N[C@H]2COCC[C@H]2N1c1nc2c3c(ccc2s1)OCCO3 [Example 37, (3aR,7aR)-1-(7,8-dihydro[1,4]dioxino[2,3-e][1,3]benzothiazol-2-yl)hexahydropyrano[3,4-d]imidazol-2(3H)-one]
23 | – | – | – | ≥ 1000 | – | ≥ 1000 | CN1CC[C@@H]2NC(=O)N(c3nc4c5c(ccc4s3)OCC5)[C@@H]2C12CC2 [Example 69]
24 | – | – | – | 100 to 1000 | – | 100 to 1000 | O=C1N[C@H]2CNCC[C@H]2N1c1nc2c3c(ccc2s1)OCO3 [Example 52]
